Where two headings read alike, the source gives them in different places. Blank lines part the entries; values can stand above or below the compound they belong to.
Assays:
ITK kinase domain = target: T1, ITK kinase domain (Homo sapiens, UniProt Q08881); assay: In vitro kinase assay (HITHUNTER enzyme fragment complementation), ITK; format: biochemical
T1 construct: N-terminally His-tagged ITK kinase domain (amino acids 352-617); His (N); made in house
T1 sequence (Q08881 352-617): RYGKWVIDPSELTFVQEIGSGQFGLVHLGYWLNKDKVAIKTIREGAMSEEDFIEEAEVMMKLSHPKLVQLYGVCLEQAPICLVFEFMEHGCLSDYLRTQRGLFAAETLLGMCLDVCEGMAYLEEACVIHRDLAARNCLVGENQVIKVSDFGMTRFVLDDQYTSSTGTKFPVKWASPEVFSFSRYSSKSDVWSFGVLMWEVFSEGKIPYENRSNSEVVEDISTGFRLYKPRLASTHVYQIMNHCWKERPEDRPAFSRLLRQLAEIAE
Experimental: Compounds were screened using the HITHUNTER™ enzyme fragment complementation method (Discoverx). Briefly, a recombinantly produced, N-terminally His-tagged ITK kinase domain (amino acids 352-617) was incubated with various concentrations of individual compounds. ATP and substrate were added, and the kinase reaction was allowed to proceed for 2-16 hours. Commercially available detection reagents were added and allowed to react for 2-4 hours. The reaction was evaluated by luminescence. Initial results were confirmed using full-length recombinant ITK protein.
In order to confirm the mechanism by which compounds depicted herein interact with the kinase domain of Tec and EGFR kinases, we created a point mutant of the ITK kinase domain, whereby the key amino acid, namely C442 was mutated to alanine. The protein was expressed in a commercial baculovirus expression system using the manufacturer's general protocol (Invitrogen, pBlueBac). Protein was expressed and purified using standard techniques. […] While the activity of WT-ITK was inhibited by compounds depicted in this application, the same compounds had no activity towards the C442A mutant kinase domain.

BTK kinase domain = target: T2, BTK kinase domain (Homo sapiens, UniProt Q06187); assay: In vitro kinase assay (HITHUNTER), BTK; format: biochemical
T2 construct: The kinase domains of BTK, LCK and ERK were expressed as recombinant purified proteins; made in house
Description: Similarly, commercially available reagents such as HITHUNTER™ were used to evaluate the effect of compounds on the activity of additional kinases. The kinase domains of BTK, LCK and ERK were expressed as recombinant purified proteins were used for these studies.

[1] = Table 3, naphthyl analog, read-out: IC50 ITK

T2 sequence (Q06187 402-655 limits assumed): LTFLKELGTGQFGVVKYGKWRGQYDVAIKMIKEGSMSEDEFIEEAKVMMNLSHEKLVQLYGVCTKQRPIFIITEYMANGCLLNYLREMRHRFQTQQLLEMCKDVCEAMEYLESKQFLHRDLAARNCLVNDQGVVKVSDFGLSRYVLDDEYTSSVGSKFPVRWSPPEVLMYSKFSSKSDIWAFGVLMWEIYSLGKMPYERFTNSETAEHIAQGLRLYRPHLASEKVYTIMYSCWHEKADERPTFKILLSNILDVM

Structure (SMILES): O=C(CCN1Cc2ccccc2C1)c1ccc2ccccc2c1 [drawing 217]
IC50 (ITK kinase domain; Table 5, read-out: IC50 ITK): 16.2 nM

Structure (SMILES): CN(CCC(=O)c1ccc2c(c1)NC(=O)CO2)Cc1ccc(F)cc1
IC50 (BTK kinase domain; Table 3, Compound): 300 nM
IC50 (ITK kinase domain; Table 3, Compound, read-out: IC50 ITK): 10 nM

Structure (SMILES): O=C(CCNCC1CCN(C(=O)c2ccncc2)CC1)c1ccc2ccccc2c1
IC50 (BTK kinase domain; Table 5): 4 nM
IC50 (ITK kinase domain; Table 5, read-out: IC50 ITK): 36 nM

Structure (SMILES): O=C(CCN1CCC(CNC(=O)C(F)(F)F)CC1)c1ccc2ccccc2c1
IC50 (BTK kinase domain; Table 5): 266 nM
IC50 (ITK kinase domain; Table 5, read-out: IC50 ITK): 217 nM

Structure (SMILES): CC(C)(CN1CCCCC1)C(=O)c1ccc2ccccc2c1
IC50 ITK (ITK kinase domain; Table 7, elimination mechanism): no IC50

Structure (SMILES): CN(CCC(=O)c1ccc2ccccc2c1)Cc1ccco1 [drawing 215]
IC50 (ITK kinase domain; Table 5, read-out: IC50 ITK): 18.7 nM

Structure (SMILES): CC(C)CN(C)CCC(=O)c1ccc2ccccc2c1
IC50 (ITK kinase domain; Table 1, ITK, read-out: IC50): 13.6 nM

Structure (SMILES): O=C(CCN1CCC(c2ccccc2)C1)c1ccc2ccccc2c1 (stereo not shown)
IC50 (ITK kinase domain; Table 4, read-out: IC50 ITK): 22.8 nM

Structure (SMILES): COc1cc2c(cc1OC)CN(CCC(=O)c1ccc3ccccc3c1)CC2 [drawing 169]
IC50 (BTK kinase domain; Table 3, naphthyl analog): 12.8 nM
IC50 (ITK kinase domain; [1]): 7 nM

Structure (SMILES): CN(CCC(=O)c1ccc2ccccc2c1)Cc1ccccc1 [drawing 107]
IC50 (ITK kinase domain; Table 1, ITK, read-out: IC50): 25.8 nM

Structure (SMILES): COc1cc2c(cc1OC)CN(CCC(=O)c1ccc3ccccc3c1)CC2 [drawing 212]
IC50 (BTK kinase domain; Table 5): 115 nM
IC50 (ITK kinase domain; Table 5, read-out: IC50 ITK): 7.2 nM

Structure (SMILES): CN(C)CCC(=O)c1ccc2ccccc2c1
IC50 (ITK kinase domain; Table 5, read-out: IC50 ITK): 161 nM

Structure (SMILES): CC(C)N(CCC(=O)c1ccc2ccccc2c1)C(C)C [drawing 220]
IC50 (ITK kinase domain; Table 5, read-out: IC50 ITK): 9.2 nM

Structure (SMILES): CN(CCC(=O)c1ccc2ccccc2c1)Cc1ccco1 [drawing 118]
IC50 (ITK kinase domain; Table 1, ITK, read-out: IC50): 19.6 nM

Structure (SMILES): O=C(CCNCC1CCNCC1)c1ccc2ccccc2c1
IC50 (BTK kinase domain; Table 5): 100 nM
IC50 (ITK kinase domain; Table 5, read-out: IC50 ITK): 163 nM

Structure (SMILES): CC(C)N(C)CCC(=O)c1ccc2ccccc2c1
IC50 (ITK kinase domain; Table 5, read-out: IC50 ITK): 16.3 nM

Structure (SMILES): O=C(CCN1CCN(C(=O)c2ccncc2)CC1)c1ccc2ccccc2c1
IC50 (BTK kinase domain; Table 5): 18 nM
IC50 (ITK kinase domain; Table 5, read-out: IC50 ITK): 54 nM

Structure (SMILES): COc1cc2c(cc1OC)CN(CCC(=O)c1ccc3ccccc3c1)CC2 [drawing 116]
IC50 (ITK kinase domain; Table 1, ITK, read-out: IC50): 0.85 nM

More lines, now with the values ahead:

IC50 (ITK kinase domain; Table 1, ITK, read-out: IC50): 13.3 nM
Structure (SMILES): CC(C)C1CCN(CCC(=O)c2ccc3ccccc3c2)CC1

IC50 (BTK kinase domain; Table 5): 452 nM
IC50 (ITK kinase domain; Table 5, read-out: IC50 ITK): 56 nM
Structure (SMILES): CN(C)C(=O)N1CCN(CCC(=O)c2ccc3ccccc3c2)CC1

IC50 (BTK kinase domain; Table 5): 117 nM
IC50 (ITK kinase domain; Table 5, read-out: IC50 ITK): 66 nM
Structure (SMILES): O=C(CCN1CCS(=O)(=O)CC1)c1ccc2ccccc2c1

IC50 (BTK kinase domain; Table 3, naphthyl analog): 6.54 nM
IC50 (ITK kinase domain; [1]): 9 nM
Structure (SMILES): CN(C)C1CCN(CCC(=O)c2ccc3ccccc3c2)CC1 [drawing 177]

IC50 (ITK kinase domain; Table 5, read-out: IC50 ITK): 24.2 nM
Structure (SMILES): O=C(CCN1CCN(c2ccccn2)CC1)c1ccc2ccccc2c1 [drawing 211]

IC50 (BTK kinase domain; Table 5): 410 nM
IC50 (ITK kinase domain; Table 5, read-out: IC50 ITK): 117 nM
Structure (SMILES): O=C(CCN1CCNCC1)c1ccc2ccccc2c1

IC50 (BTK kinase domain; Table 5): 153 nM
IC50 (ITK kinase domain; Table 5, read-out: IC50 ITK): 23 nM
Structure (SMILES): NC(=O)N1CCN(CCC(=O)c2ccc3ccccc3c2)CC1

IC50 (ITK kinase domain; Table 5, read-out: IC50 ITK): 30.9 nM
Structure (SMILES): CN1CCN(CCC(=O)c2ccc3ccccc3c2)CC1 [drawing 208]

IC50 (BTK kinase domain; Table 5): 8220 nM
IC50 (ITK kinase domain; Table 5, read-out: IC50 ITK): 137 nM
Structure (SMILES): O=C(CCN1CCCC1)c1ccc2ccccc2c1 [drawing 201]

IC50 BTK (BTK kinase domain; Table 4): no IC50
IC50 (ITK kinase domain; Table 4, read-out: IC50 ITK): 56400 nM
Structure (SMILES): O=C(CCN1CCOCC1)c1cc2ccccc2o1

IC50 (ITK kinase domain; Table 5, read-out: IC50 ITK): 35.9 nM
Structure (SMILES): O=C(CCN1CCC(c2ccccn2)C1)c1ccc2ccccc2c1 (stereo not shown)

IC50 (ITK kinase domain; Table 1, ITK, read-out: IC50): 50.4 nM
Structure (SMILES): CN1CCN(CCC(=O)c2ccc3ccccc3c2)CC1 [drawing 110]

IC50 (BTK kinase domain; Table 5): 51 nM
IC50 (ITK kinase domain; Table 5, read-out: IC50 ITK): 87 nM
Structure (SMILES): O=C(CCN1CCCCNC1)c1ccc2ccccc2c1

IC50 (ITK kinase domain; Table 7, elimination mechanism, read-out: IC50 ITK): 44.6 nM
Structure (SMILES): O=C(CCN1CCOCC1)c1ccc2ccccc2c1 [drawing 254]

IC50 (BTK kinase domain; Table 4): 5000 nM
IC50 (ITK kinase domain; Table 4, read-out: IC50 ITK): 48 nM
Structure (SMILES): O=C(CCN1CCOCC1)c1ccc2ccccc2n1

IC50 (BTK kinase domain; Table 4): 39 nM
IC50 (ITK kinase domain; Table 4, read-out: IC50 ITK): 20 nM
Structure (SMILES): O=C(CCN1CCOCC1)c1ccc2ccccc2c1 [drawing 185]

IC50 (BTK kinase domain; Table 4): 17 nM
IC50 (ITK kinase domain; Table 4, read-out: IC50 ITK): 10 nM
Structure (SMILES): O=C(CCN1CCOCC1)c1cc2ccccc2s1

IC50 BTK (BTK kinase domain; Table 4): no IC50
IC50 (ITK kinase domain; Table 4, read-out: IC50 ITK): 1680 nM
Structure (SMILES): O=C(CCN1CCOCC1)c1cc2ccccc2cn1 [drawing 187]

IC50 (BTK kinase domain; Table 4): 611 nM
IC50 (ITK kinase domain; Table 4, read-out: IC50 ITK): 134 nM
Structure (SMILES): O=C(CCN1CCOCC1)c1csc2ccccc12

IC50 ITK (ITK kinase domain; Table 7, elimination mechanism): no IC50
Structure (SMILES): OC(CCN1CCOCC1)c1ccc2ccccc2c1 (stereo not shown)

IC50 (BTK kinase domain; Table 4): 6 nM
IC50 (ITK kinase domain; Table 4, read-out: IC50 ITK): 30 nM
Structure (SMILES): O=C(CCN1CCOCC1)c1ccc2cc(O)ccc2c1

IC50 (ITK kinase domain; Table 5, read-out: IC50 ITK): 852 nM
Structure (SMILES): CC1CCCN1CCC(=O)c1ccc2ccccc2c1 (stereo not shown)

IC50 (ITK kinase domain; Table 5, read-out: IC50 ITK): 9.5 nM
Structure (SMILES): CN(C)C1CCN(CCC(=O)c2ccc3ccccc3c2)CC1 [drawing 216]

IC50 (ITK kinase domain; Table 2, read-out: IC50 ITK): 20 nM
Structure (SMILES): COc1ccc(C(=O)CCN2CCOCC2)cc1[N+](=O)[O-]

IC50 (ITK kinase domain; Table 1, ITK, read-out: IC50): 6.86 nM
Structure (SMILES): CC(C)C1CCN(CCC(=O)c2ccc3ccccc3c2)C1 (stereo not shown)

Source: patent US20150290200A1, “INTRACELLULAR KINASE INHIBITORS” (Pharmacyclics Inc., priority 2006, published 2015)
